Laboratory results from patent US20250346585A1 (Alexion Pharmaceuticals, Inc., priority 2022, published 2025).
pIC50: −log10 of the molar value.

Each molecule was assayed against Human complement C1s enzyme (Homo sapiens (Human), UniProt P09871) (assay: Human C1s enzyme assay). Conditions: Human C1s enzyme assay of Example 3; read-out: IC50 (Stars).
Format: biochemical
Experimental: Human complement C1s enzyme (purified from human serum, Complement Technology, Inc.) at 1.16 nM final concentration was incubated with test compound at various concentrations for 5 min at room temperature in 50 mM Tris, 1 M NaCl, pH 7.5. A synthetic substrate Z-L-Lys-SBzl and DTNB (Ellman's reagent) were added to final concentrations of 100 μM each. Absorbance at 405 nm (A405) was recorded at 30 second intervals for 30 min using a microplate spectrophotometer. IC50 values were calculated by nonlinear regression of complement C1s reaction rates as a function of test compound concentration.

Human complement C1s enzyme, sequence (P09871 438-688 limits assumed): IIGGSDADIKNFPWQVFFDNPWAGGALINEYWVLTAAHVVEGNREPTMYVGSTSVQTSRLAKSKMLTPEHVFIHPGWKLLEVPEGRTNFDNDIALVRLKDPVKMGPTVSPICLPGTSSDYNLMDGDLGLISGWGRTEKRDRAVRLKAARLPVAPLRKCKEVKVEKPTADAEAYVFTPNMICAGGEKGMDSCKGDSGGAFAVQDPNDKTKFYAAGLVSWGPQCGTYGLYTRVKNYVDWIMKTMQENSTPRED
Human complement C1s enzyme, sequence (P09871 16-437 partner limits assumed): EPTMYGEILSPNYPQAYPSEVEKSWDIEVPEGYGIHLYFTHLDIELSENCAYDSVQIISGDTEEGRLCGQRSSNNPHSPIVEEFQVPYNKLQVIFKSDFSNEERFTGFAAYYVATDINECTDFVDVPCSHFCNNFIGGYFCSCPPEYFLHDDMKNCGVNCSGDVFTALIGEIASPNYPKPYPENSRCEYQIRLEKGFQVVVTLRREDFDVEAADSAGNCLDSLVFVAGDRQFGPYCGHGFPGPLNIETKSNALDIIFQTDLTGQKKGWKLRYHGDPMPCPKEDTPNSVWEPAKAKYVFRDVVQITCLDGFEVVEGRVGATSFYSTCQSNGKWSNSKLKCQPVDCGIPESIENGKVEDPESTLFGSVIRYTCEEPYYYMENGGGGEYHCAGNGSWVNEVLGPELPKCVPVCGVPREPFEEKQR

Row | pIC50 | SMILES
1 | < 6.00 | Nc1ccc(-c2csc(CNC(=O)[C@@H]3CC4(CN3C(=O)CNC(=O)c3ccc(Oc5ccc(F)cc5)cc3)OCCO4)c2)cn1 [Compound 123, (S)—N-((4-(6-aminopyridin-3-yl)thiophen-2-yl)methyl)-7-((4-(4-fluorophenoxy)benzoyl)glycyl)-1,4-dioxa-7-azaspiro[4.4]nonane-8-carboxamide]
2 | > 7.00 | N=C(N)c1csc(CNC(=O)[C@@H]2C[C@](F)(CF)CN2C(=O)CNC(=O)c2ccc3c(c2)-c2ccccc2C3(F)F)c1 [Compound 52, (2S,4R)—N-((4-carbamimidoylthiophen-2-yl)methyl)-1-((9,9-difluoro-9H-fluorene-3-carbonyl)glycyl)-4-fluoro-4-(fluoromethyl)pyrrolidine-2-carboxamide]
3 | > 7.00 | C[C@@H](NC(=O)[C@@H]1C[C@](F)(CF)CN1C(=O)CNC(=O)c1ccc2c(c1)-c1ccccc1C2(F)F)c1cc(C(=N)N)cs1 [Compound 11, (2S,4R)—N-[(1R)-1-(4-carbamimidoylthiophen-2-yl)ethyl]-1-{2-[(9,9-difluorofluoren-3-yl)formamido]acetyl}-4-fluoro-4-(fluoromethyl) pyrrolidine-2-carboxamide]
4 | > 7.00 | N=C(N)c1csc(CNC(=O)[C@@H]2CC3(CN2C(=O)CNC(=O)c2ccc(-c4ccccc4)cc2F)OCCO3)c1 [Compound 83, (S)—N-((4-carbamimidoylthiophen-2-yl)methyl)-7-((3-fluoro-[1,1′-biphenyl]-4-carbonyl)glycyl)-1,4-dioxa-7-azaspiro[4.4]nonane-8-carboxamide]
5 | > 7.00 | Cc1cc(C(=O)NCC(=O)N2[C@H]3C[C@@]3(C)C[C@H]2C(=O)N[C@H](C)c2cc(C(=N)N)cs2)ccc1Oc1ccccc1 [Compound 28, (1S,3S,5S)—N—((R)-1-(4-carbamimidoylthiophen-2-yl)ethyl)-5-methyl-2-((3-methyl-4-phenoxybenzoyl)glycyl)-2-azabicyclo[3.1.0]hexane-3-carboxamide]
6 | > 7.00 | C[C@@H](NC(=O)[C@@H]1CC2(CN1C(=O)CNC(=O)c1ccc(-c3cc(F)ccc3F)cc1)OCCO2)c1cc(C(=N)N)cs1 [Compound 166, (S)—N—((R)-1-(4-carbamimidoylthiophen-2-yl)ethyl)-7-((2′,5′-difluoro-[1,1′-biphenyl]-4-carbonyl)glycyl)-1,4-dioxa-7-azaspiro[4.4]nonane-8-carboxamide]
7 | > 7.00 | N=C(N)c1csc(CNC(=O)[C@@H]2CC3(CN2C(=O)CNC(=O)c2ccc(-c4cc(F)cc(F)c4)cc2)OCCO3)c1 [Compound 189, (S)—N-((4-carbamimidoylthiophen-2-yl)methyl)-7-((3′,5′-difluoro-[1,1′-biphenyl]-4-carbonyl)glycyl)-1,4-dioxa-7-azaspiro[4.4]nonane-8-carboxamide]
8 | < 6.00 | C[C@@H](NC(=O)[C@@H]1CC2(CN1C(=O)CNC(=O)c1ccc3c(c1)-c1ccccc1C3(F)F)OCCO2)c1cc(-c2cc[nH]n2)cs1 [Compound 97, (S)—N—((R)-1-(4-(1H-pyrazol-3-yl)thiophen-2-yl)ethyl)-7-((9,9-difluoro-9H-fluorene-3-carbonyl)glycyl)-1,4-dioxa-7-azaspiro[4.4]nonane-8-carboxamide]
9 | > 7.00 | COC[C@@]1(F)C[C@@H](C(=O)N[C@H](C)c2cc(C(=N)N)cs2)N(C(=O)CNC(=O)c2ccc(C(F)(F)c3ccccc3)cc2)C1 [Compound 136, (2S,4R)—N—((R)-1-(4-carbamimidoylthiophen-2-yl)ethyl)-1-((4-(difluoro(phenyl)methyl)benzoyl)glycyl)-4-fluoro-4-(methoxymethyl)pyrrolidine-2-carboxamide]

Same assay, conditions: Human complement C1s enzyme 1.16 nM, substrate Z-L-Lys-SBzl 100 μM, assay of Example 3; read-out: IC50 (Stars)

Row | pIC50 | SMILES
10 | > 7.00 | C[C@@H](NC(=O)[C@@H]1C[C@@H](S(C)(=O)=O)CN1C(=O)CNC(=O)c1ccc2c(c1)-c1ccccc1C2OC(F)F)c1cc(C(=N)N)cs1 (stereo partly drawn) [Compound 392, (2S,4R)—N—((R)-1-(4-carbamimidoylthiophen-2-yl)ethyl)-1-((9-(difluoromethoxy)-9H-fluorene-3-carbonyl)glycyl)-4-(methylsulfonyl)pyrrolidine-2-carboxamide]
11 | > 7.00 | C[C@@H](NC(=O)[C@@H]1C[C@]2(COCCN)C[C@@H]2N1C(=O)CNC(=O)c1ccc2c(c1)-c1ccccc1C2(F)F)c1cc(C(=N)N)cs1 [Compound 313, (1S,3S,5R)-5-((2-aminoethoxy)methyl)-N—((R)-1-(4-carbamimidoylthiophen-2-yl)ethyl)-2-((9,9-difluoro-9H-fluorene-3-carbonyl)glycyl)-2-azabicyclo[3.1.0]hexane-3-carboxamide]
12 | > 7.00 | C[C@@H](NC(=O)[C@@H]1C[C@@H](CO)CN1C(=O)CNC(=O)c1ccc2c(c1)-c1ccccc1C2(F)F)c1cc(C(=N)N)cs1 (relative stereo) [Compound 305, (2S,4R*)—N—((R)-1-(4-carbamimidoylthiophen-2-yl)ethyl)-1-((9,9-difluoro-9H-fluorene-3-carbonyl)glycyl)-4-(hydroxymethyl)pyrrolidine-2-carboxamide]
13 | > 7.00 | Cc1ccc(-c2ccc3c(c2)CN(CC(=O)N2CC4(C[C@H]2C(=O)NCc2cc(C(=N)N)cs2)OCCO4)C3=O)c(C)c1 [Compound 240, (S)—N-((4-carbamimidoylthiophen-2-yl)methyl)-7-(2-(5-(2,4-dimethylphenyl)-1-oxoisoindolin-2-yl)acetyl)-1,4-dioxa-7-azaspiro[4.4]nonane-8-carboxamide]
14 | < 6.00 | Nc1csc(CNC(=O)[C@@H]2CC3(CN2C(=O)CNC(=O)c2ccc(Oc4ccc(F)cc4)cc2)OCCO3)c1 [Compound 244, (S)—N-((4-aminothiophen-2-yl)methyl)-7-((4-(4-fluorophenoxy)benzoyl)glycyl)-1,4-dioxa-7-azaspiro[4.4]nonane-8-carboxamide]
15 | > 7.00 | C[C@@H](NC(=O)[C@@H]1C[C@](F)(CF)CN1C(=O)CNC(=O)c1ccc2[nH]c3ccccc3c2c1)c1cc(C(=N)N)cs1 [Compound 341, N-(2-((2S,4R)-2-(((R)-1-(4-carbamimidoylthiophen-2-yl)ethyl)carbamoyl)-4-fluoro-4-(fluoromethyl)pyrrolidin-1-yl)-2-oxoethyl)-9H-carbazole-3-carboxamide]
16 | > 7.00 | C[C@@H](NC(=O)[C@@H]1C[C@@H](S(C)(=O)=O)CN1C(=O)CNC(=O)c1ccc2c(c1)S(=O)(=O)c1ccccc1-2)c1cc(C(=N)N)cs1 [Compound 381, (2S,4R)—N—((R)-1-(4-carbamimidoylthiophen-2-yl)ethyl)-1-((5,5-dioxidodibenzo[b,d]thiophene-3-carbonyl)glycyl)-4-(methylsulfonyl) pyrrolidine-2-carboxamide]
17 | > 7.00 | COC[C@@]1(F)C[C@@H](C(=O)N[C@H](C)c2cc(C(=N)N)cs2)N(C(=O)CNC(=O)c2ccc3c(c2)C(C)(C)c2ccccc2-3)C1 [Compound 344, (2S,4R)—N—((R)-1-(4-carbamimidoylthiophen-2-yl)ethyl)-1-((9,9-dimethyl-9H-fluorene-2-carbonyl)glycyl)-4-fluoro-4-(methoxymethyl) pyrrolidine-2-carboxamide]

The next lines start with the molecule.

Row | SMILES | pIC50
18 | C[C@@H](NC(=O)[C@@H]1CC2(CN1C(=O)CNC(=O)c1ccc3c(c1)-c1ccccc1C3(F)F)OCCO2)c1cc(C(N)=O)cs1 [Compound 200, (S)—N—((R)-1-(4-carbamoylthiophen-2-yl)ethyl)-7-((9,9-difluoro-9H-fluorene-3-carbonyl)glycyl)-1,4-dioxa-7-azaspiro[4.4]nonane-8-carboxamide] | < 6.00
19 | COc1cccc(F)c1-c1ccc(C(=O)NCC(=O)N2CC3(C[C@H]2C(=O)NCc2cc(C(=N)N)cs2)OCCO3)cc1 [Compound 241, (S)—N-((4-carbamimidoylthiophen-2-yl)methyl)-7-((2′-fluoro-6′-methoxy-[1,1′-biphenyl]-4-carbonyl)glycyl)-1,4-dioxa-7-azaspiro[4.4]nonane-8-carboxamide] | > 7.00
20 | C[C@@H](NC(=O)[C@@H]1CC2(CN1C(=O)CN1Cc3cc(-c4ccccc4)ccc3C1=O)OCCO2)c1cc(C(=N)N)cs1 [Compound 365, (S)—N—((R)-1-(4-carbamimidoylthiophen-2-yl)ethyl)-7-(2-(1-oxo-5-phenylisoindolin-2-yl)acetyl)-1,4-dioxa-7-azaspiro[4.4]nonane-8-carboxamide] | > 7.00
21 | Cc1cc2c(cc1C(=O)NCC(=O)N1CC3(C[C@H]1C(=O)N[C@H](C)c1cc(C(=N)N)cs1)OCCO3)-c1ccccc1C2(F)F [Compound 237, (S)—N—((R)-1-(4-carbamimidoylthiophen-2-yl)ethyl)-7-((9,9-difluoro-2-methyl-9H-fluorene-3-carbonyl)glycyl)-1,4-dioxa-7-azaspiro[4.4]nonane-8-carboxamide] | > 7.00
22 | N=C(N)c1csc(CNC(=O)[C@@H]2CC3(CN2C(=O)CN2Cc4cc(-c5ccc(F)cc5F)ccc4C2=O)OCCO3)c1 [Compound 228, (S)—N-((4-carbamimidoylthiophen-2-yl)methyl)-7-(2-(5-(2,4-difluorophenyl)-1-oxoisoindolin-2-yl)acetyl)-1,4-dioxa-7-azaspiro[4.4]nonane-8-carboxamide] | > 7.00

Same assay, conditions: Human complement C1s enzyme 1.16 nM, substrate Z-L-Lys-SBzl; assay of Example 3; read-out: IC50 (Stars)

Row | pIC50 | SMILES
23 | > 7.00 | C[C@@H](NC(=O)[C@@H]1C[C@]2(COCCCN(C)C)C[C@@H]2N1C(=O)CNC(=O)c1ccc2c(c1)-c1ccccc1C2(F)F)c1cc(C(=N)N)cs1 [Compound 422, (1S,3S,5R)-N-((R)-1-(4-carbamimidoylthiophen-2-yl)ethyl)-2-((9,9-difluoro-9H-fluorene-3-carbonyl)glycyl)-5-((3-(dimethylamino)propoxy)methyl)-2-azabicyclo[3.1.0]hexane-3-carboxamide]
